In brackets after ≈: the same amount, converted by molar mass. Activity calls are given as the source filed them. No cut-off for these calls is given here.
Columns and labels:
Kir3.1/Kir3.4 = molecular target: T1, Kir3.1/Kir3.4 (Homo sapiens, UniProt P48544+P48549); test: Inhibition of recombinant human GIRK1/4 channel; assay type: protein-complex assay
T1 sequence (P48549 whole entry): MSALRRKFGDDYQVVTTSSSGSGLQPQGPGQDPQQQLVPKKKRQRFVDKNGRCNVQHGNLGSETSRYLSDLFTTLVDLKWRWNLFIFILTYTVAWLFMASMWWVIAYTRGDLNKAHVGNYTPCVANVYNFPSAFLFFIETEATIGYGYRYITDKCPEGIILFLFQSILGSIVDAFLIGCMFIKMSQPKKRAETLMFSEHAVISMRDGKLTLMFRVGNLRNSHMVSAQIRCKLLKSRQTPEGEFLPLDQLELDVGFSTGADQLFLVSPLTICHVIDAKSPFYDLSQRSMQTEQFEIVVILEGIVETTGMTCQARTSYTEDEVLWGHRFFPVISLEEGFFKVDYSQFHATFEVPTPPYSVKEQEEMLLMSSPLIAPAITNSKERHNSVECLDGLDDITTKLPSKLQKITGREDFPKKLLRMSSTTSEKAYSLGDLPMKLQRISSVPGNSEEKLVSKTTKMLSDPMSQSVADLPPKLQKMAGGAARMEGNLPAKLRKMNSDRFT
T1 sequence (P48544 whole entry): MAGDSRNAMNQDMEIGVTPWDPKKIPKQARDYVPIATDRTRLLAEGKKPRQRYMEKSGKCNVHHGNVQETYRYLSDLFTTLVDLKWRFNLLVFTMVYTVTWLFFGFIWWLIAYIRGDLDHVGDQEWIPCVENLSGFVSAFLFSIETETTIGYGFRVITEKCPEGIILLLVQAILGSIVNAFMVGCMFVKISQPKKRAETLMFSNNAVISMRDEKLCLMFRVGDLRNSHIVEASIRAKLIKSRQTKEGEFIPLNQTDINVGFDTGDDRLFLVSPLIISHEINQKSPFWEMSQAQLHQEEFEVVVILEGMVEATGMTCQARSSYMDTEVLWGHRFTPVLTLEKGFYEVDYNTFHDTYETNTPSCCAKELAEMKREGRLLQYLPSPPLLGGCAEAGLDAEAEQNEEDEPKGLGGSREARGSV

[1] = Aqueous solubility of the compound at pH 6.8; assay type: physicochemical
MDCK = test: Substrate activity at p-glycoprotein in MDCK cells overexpressing MDR1 assessed as efflux ratio of permeability from basolateral to apical side over apical to basolateral side; assay type: cell-based; settings: Canis lupus familiaris
[2] = Apparent permeability across apical to basolateral side in MDCK cells; assay type: ADME, cell-based, Canis lupus familiaris; settings: dog
[3] = Brain to plasma ratio in rat; assay type: ADME; settings: read-out: BPR
[4] = molecular target: Kir3.1/Kir3.2 (Homo sapiens) (UniProt P48549+P48051); test: Inhibition of recombinant human GIRK1/2 channel; assay type: protein-complex assay
[5] = Intrinsic clearance in human liver microsomes; assay type: ADME, Microsome; settings: read-out: CLH
[6] = Intrinsic clearance in rat liver microsomes; assay type: ADME, Microsome; settings: read-out: CLH
[7] = molecular target: Sodium channel protein type 5 subunit alpha (Homo sapiens, UniProt Q14524); test: Inhibition of recombinant human Nav1.5; assay type: toxicity
[8] = molecular target: Voltage-dependent L-type calcium channel subunit alpha-1C (Homo sapiens, UniProt Q13936); test: Inhibition of recombinant human Cav1.2; assay type: toxicity
[9] = molecular target: T2, Potassium voltage-gated channel subfamily KQT member 1 (Homo sapiens, UniProt P51787); test: Inhibition of recombinant human KCNQ1; assay type: toxicity
T2 sequence (P51787 whole entry): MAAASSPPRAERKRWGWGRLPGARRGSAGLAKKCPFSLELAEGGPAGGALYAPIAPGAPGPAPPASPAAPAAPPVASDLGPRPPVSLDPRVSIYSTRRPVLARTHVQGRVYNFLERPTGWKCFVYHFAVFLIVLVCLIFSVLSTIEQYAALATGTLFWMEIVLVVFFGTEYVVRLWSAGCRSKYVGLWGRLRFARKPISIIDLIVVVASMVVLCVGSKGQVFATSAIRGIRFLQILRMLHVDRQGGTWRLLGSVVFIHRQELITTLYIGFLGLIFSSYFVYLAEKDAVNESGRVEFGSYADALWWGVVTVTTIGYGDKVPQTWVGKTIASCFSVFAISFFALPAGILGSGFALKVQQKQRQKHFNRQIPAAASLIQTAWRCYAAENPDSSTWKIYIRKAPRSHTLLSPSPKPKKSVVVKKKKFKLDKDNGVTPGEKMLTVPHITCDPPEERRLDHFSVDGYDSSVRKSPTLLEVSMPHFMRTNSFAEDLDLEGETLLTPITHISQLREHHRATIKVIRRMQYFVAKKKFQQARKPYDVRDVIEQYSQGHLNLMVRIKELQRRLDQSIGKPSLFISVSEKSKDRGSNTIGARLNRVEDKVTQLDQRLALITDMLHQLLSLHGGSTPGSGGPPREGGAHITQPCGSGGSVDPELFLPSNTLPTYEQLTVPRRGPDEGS

[10] = molecular target: Voltage-gated inwardly rectifying potassium channel KCNH2 (Homo sapiens, UniProt Q12809); test: Inhibition of recombinant hERG in the presence of dofetilide by competitive binding assay; assay type: toxicity
Chain of Voltage-gated inwardly rectifying potassium channel KCNH2 (Q12809 whole entry): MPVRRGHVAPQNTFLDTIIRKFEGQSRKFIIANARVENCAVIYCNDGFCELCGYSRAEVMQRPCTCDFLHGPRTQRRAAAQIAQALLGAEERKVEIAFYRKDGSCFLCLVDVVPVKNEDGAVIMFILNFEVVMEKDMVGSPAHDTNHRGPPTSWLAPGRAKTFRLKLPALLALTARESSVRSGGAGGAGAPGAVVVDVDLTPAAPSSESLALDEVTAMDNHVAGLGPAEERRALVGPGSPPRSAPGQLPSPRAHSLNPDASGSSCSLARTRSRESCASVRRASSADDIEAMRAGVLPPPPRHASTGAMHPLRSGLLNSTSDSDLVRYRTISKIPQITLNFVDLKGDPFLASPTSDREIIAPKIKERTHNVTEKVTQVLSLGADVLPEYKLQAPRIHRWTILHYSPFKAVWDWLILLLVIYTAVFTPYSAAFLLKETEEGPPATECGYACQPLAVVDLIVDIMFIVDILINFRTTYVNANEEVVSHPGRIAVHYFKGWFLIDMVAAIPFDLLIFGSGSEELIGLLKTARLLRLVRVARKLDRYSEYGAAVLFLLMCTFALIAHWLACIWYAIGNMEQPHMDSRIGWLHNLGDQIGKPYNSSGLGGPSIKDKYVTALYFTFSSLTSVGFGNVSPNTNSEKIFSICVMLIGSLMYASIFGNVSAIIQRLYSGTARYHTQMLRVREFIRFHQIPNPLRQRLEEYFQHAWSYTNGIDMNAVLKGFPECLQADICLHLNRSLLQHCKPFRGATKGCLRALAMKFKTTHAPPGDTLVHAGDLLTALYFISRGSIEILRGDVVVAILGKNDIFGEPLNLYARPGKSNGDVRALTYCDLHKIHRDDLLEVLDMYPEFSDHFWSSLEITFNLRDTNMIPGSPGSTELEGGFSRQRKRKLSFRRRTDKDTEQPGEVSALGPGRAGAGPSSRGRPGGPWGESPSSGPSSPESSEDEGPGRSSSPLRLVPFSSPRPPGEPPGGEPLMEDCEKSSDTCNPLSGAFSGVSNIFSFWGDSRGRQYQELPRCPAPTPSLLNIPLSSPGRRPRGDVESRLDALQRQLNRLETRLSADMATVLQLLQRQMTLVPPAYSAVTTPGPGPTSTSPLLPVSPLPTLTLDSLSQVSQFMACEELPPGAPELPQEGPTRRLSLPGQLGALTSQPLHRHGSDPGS

Chain of Voltage-dependent L-type calcium channel subunit alpha-1C (Q13936 whole entry): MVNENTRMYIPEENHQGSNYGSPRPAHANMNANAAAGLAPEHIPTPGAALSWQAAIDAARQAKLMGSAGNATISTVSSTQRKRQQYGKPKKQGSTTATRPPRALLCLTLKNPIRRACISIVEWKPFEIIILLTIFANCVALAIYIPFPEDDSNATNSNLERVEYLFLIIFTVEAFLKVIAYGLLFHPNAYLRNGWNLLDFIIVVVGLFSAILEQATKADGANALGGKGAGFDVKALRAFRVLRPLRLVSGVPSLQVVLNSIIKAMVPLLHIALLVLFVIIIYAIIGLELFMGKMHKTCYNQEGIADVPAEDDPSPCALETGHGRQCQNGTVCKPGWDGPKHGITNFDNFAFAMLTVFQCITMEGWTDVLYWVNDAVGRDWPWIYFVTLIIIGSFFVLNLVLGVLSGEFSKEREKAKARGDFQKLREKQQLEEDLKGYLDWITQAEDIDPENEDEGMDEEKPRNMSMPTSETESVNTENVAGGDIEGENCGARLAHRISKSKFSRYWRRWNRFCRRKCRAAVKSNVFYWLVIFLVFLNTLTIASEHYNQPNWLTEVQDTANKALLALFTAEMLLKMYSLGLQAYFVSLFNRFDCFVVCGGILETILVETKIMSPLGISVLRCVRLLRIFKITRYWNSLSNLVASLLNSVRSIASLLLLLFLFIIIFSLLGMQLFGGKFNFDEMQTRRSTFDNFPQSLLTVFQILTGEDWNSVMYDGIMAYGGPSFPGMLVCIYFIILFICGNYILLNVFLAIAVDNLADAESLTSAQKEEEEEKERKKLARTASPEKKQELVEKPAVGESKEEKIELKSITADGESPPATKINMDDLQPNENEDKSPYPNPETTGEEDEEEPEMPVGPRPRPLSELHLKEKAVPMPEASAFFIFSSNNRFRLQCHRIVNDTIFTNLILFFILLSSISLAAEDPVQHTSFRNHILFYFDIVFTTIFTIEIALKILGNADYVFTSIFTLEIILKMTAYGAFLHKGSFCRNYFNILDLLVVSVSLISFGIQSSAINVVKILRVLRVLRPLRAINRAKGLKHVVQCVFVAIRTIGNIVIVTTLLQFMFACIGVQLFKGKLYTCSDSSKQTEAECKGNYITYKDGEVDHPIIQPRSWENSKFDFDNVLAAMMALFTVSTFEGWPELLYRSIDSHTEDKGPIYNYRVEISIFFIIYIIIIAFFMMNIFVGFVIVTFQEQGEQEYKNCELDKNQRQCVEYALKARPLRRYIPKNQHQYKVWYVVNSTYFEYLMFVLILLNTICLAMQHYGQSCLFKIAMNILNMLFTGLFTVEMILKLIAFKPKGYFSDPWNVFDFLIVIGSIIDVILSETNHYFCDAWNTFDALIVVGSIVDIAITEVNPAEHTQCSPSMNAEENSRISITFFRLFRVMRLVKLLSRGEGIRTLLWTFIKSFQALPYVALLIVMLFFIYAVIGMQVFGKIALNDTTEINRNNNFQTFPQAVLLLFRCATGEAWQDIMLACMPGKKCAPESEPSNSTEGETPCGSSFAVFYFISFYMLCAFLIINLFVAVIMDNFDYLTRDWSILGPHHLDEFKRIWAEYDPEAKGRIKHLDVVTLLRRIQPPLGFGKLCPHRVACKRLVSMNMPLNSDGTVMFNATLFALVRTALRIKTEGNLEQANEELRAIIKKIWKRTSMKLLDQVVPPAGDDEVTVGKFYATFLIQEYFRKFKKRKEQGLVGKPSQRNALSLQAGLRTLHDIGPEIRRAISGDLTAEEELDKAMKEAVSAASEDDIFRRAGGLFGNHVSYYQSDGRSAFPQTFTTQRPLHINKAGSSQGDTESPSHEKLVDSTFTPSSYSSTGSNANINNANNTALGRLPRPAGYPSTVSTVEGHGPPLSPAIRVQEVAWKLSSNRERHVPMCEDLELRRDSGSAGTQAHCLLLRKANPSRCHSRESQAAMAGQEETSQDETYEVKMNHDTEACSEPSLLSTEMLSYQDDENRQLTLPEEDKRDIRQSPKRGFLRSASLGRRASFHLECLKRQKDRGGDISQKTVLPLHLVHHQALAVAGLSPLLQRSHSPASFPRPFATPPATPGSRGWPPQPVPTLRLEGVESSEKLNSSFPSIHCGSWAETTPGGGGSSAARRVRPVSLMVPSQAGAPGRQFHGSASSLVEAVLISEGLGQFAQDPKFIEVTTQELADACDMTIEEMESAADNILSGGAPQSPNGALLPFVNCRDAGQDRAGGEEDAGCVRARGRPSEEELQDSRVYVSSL

Row | IC50 (Kir3.1/Kir3.4) | solubility [1] | Papp A→B [2] | Kp [3] | inhibition [4] | microsomal CLint [5] | microsomal CLint [6] | Structure (SMILES) | Ratio (MDCK) | IC50 [7] | IC50 [8] | IC50 [9] | IC50 [10]
1 | 100 nM | 500 µM (≈ 246 µg/mL) | 10.1 ×10⁻⁶ cm/s |  |  |  |  | CS(=O)(=O)CCCOc1ncc(Cl)c2c1c(=O)cc(CO)n2-c1c(Cl)cccc1Cl | 40.7 |  |  |  | 
2 | 27 nM | 89 µM (≈ 34.3 µg/mL) | 22.6 ×10⁻⁶ cm/s |  |  |  |  | COc1ncc(Cl)c2c1c(=O)cc(CO)n2-c1c(Cl)cccc1Cl | 2.7 |  |  |  | 
3 | 140 nM | 170 µM (≈ 64.1 µg/mL) | 26.6 ×10⁻⁶ cm/s |  |  |  |  | Cc1cc(=O)c2c(F)cncc2n1-c1c(Cl)cc(C#CCO)cc1Cl | 1.7 |  |  |  | 
4 | 80 nM | 700 µM (≈ 312 µg/mL) | 7 ×10⁻⁶ cm/s |  |  |  |  | O=c1cc(CO)n(-c2c(Cl)cccc2Cl)c2c(Cl)cnc(OCC(O)CO)c12 (centres undefined) | 12.1 |  |  |  | 
5 | 11 nM | 660 µM (≈ 273 µg/mL) | 31 ×10⁻⁶ cm/s | 1 |  |  |  | Cc1cc(=O)c2c(F)cncc2n1-c1c(Cl)cc(OCC(O)CO)cc1Cl (centres undefined) | 0.9 |  |  |  | 
6 | 50 nM | 13 µM (≈ 4.93 µg/mL) |  |  | inactive | 77 µL/min/mg | 236 µL/min/mg | CSc1c(C#N)c(=O)c2ccc(F)cc2n1-c1c(Cl)cccc1Cl |  | > 50000 nM | 24200 nM | 33000 nM | > 30000 nM
7 | 150 nM |  | 5 ×10⁻⁶ cm/s |  |  |  |  | O=c1cc(CO)n(-c2c(Cl)cccc2Cl)c2c(Cl)cnc(OC[C@@H](O)CO)c12 | 10.6 | > 50000 nM | > 50000 nM | > 50000 nM | > 50000 nM
8 |  | 430 µM (≈ 172 µg/mL) | 32.6 ×10⁻⁶ cm/s |  |  |  |  | Cc1cc(=O)c2c(OCCO)ncc(Cl)c2n1-c1c(Cl)cccc1Cl | 0.7 |  |  |  | 
9 | 2 nM | 46 µM (≈ 16.2 µg/mL) | 39.1 ×10⁻⁶ cm/s |  |  |  |  | COc1cc(Cl)c(-n2c(C)cc(=O)c3c(F)cncc32)c(Cl)c1 | 1.1 |  |  |  | 

Reference: ChEMBL document CHEMBL5252622, “Discovery of a brain-sparing GIRK1/4 inhibitor for pharmacological cardioversion of atrial fibrillation” (Bioorg Med Chem Lett, 2023)
